Values quoted from earlier work in US8030014B2, “Detecting agent and therapeutic agent for highly malignant breast cancer” (priority 2005, dated 2011).

Test system: breast cancer
Conditions: paclitaxel used in addition to adriamycin plus cyclophosphamide (AC); postoperative auxiliary chemotherapy

SMILES: CC(=O)O[C@H]1C(=O)[C@@]2(C)[C@H]([C@H](OC(=O)c3ccccc3)[C@]3(O)C[C@H](OC(=O)[C@H](O)[C@@H](NC(=O)c4ccccc4)c4ccccc4)C(C)=C1C3(C)C)[C@]1(OC(C)=O)CO[C@@H]1C[C@@H]2O [paclitaxel]
- lowering of annual mortality rate over AC therapy alone: 26%
